From patent US4000269A, “S-(α-substituted-arylmethylthio, -arylmethylsulfinyl, and -arylmethylsulfonyl)methyl phosphorus esters used as insecticides” (priority 1975, dated 1976) come the findings set out here.

The structures appear in SMILES notation.

What all share (type): in vivo
Assay [1] deals with Southern corn rootworm larvae (Diabrotica undecimpunctata). Briefly: Southern Corn Rootworm Control (treated soil, dust on talc). Particulars: 144 h, potting soil, mortality after 6 days, read-out: Percent Control of Southern Corn Rootworm Larvae; for mortality at 1120.85 g/ha: 1 lbs./Acre; for mortality at 11208.5 g/ha: 10 lbs./Acre; for mortality at 56042.5 g/ha: 50 lbs./Acre. As for the experimental part: Compounds are prepared as dusts on talc. The compounds are dissolved in acetone, and appropriate rates obtained by serial dilution. One and one-quarter milliliters of solution is pipetted onto a standard volume of dust in 1 -ounce jars, and the acetone allowed to evaporate. Twenty-five milliliters of moist soil and about 200 millet seeds are placed in the jar, capped and the contents thoroughly mixed. Ten second-instar larvae of the Southern corn rootworm (Diabrotica undecimpunctata ) are then placed in each jar. Mortality counts are made after 6 days and percent mortality determined.

Assay [2] has as its system Tarnished Plant Bug (Lygus lineolaris). Briefly: A. Tarnished Plant Bug leaf-dip test. As to conditions: 48 h, 100 ppm., 2 days, read-out: Percent Mortality, Tarnished plant Bug. How it is done:
Test compounds are prepared as 1000 ppm. solutions in 10 % acetone, 0.2 % Alrodyne 315 , and 89.8 % water. A tenfold dilution is made with 65 % acetone and 35 % water. The primary leaves of Sieva lima bean plants are dipped for 3 to 5 seconds in the test solutions and placed in an exhaust hood to dry. When dry, each leaf is placed in a 4 -inch petri dish with a moist filter paper on the bottom. Ten adult Lygus bugs are aspirated from the stock culture and placed in the petri dish. The dishes are covered and held at 80° F. and 50 % R.H. After 2 days, mortality counts are made.

In assay [3] the test system is Boll Weevil (Anthonomus grandis). Briefly: B. Boll Weevil leaf-dip test. As to conditions: 48 h, 100 ppm., 2 days, read-out: Percent Mortality, Boll Weevil. How it is done: Test compounds are prepared as 1000 ppm. solutions in 10 % acetone, 0.2 % Alrodyne 315 , and 89.8 % water. A tenfold dilution is made with 65 % acetone and 35 % water. The first or second true leaf of young cotton plants is dipped for 3 to 5 seconds in the test solution and placed in an exhaust hood to dry. When dry, each leaf is placed in a 4 -inch petri dish with a moist filter paper on the bottom. Ten adult boll weevils are removed from the stock culture and placed in the petri dish. The dishes are covered and held at 80° F. and 50 % R.H. After 2 days, mortality counts are made.

The next assay relates to Bean Aphid (Aphis fabae). Briefly: C. Bean Aphid spray test. Particulars: 48 h, 2 days, read-out: Percent Mortality, Bean Aphid. How it is done:
Compounds are tested at 100 , 10 and 1 ppm. in solution or suspension in 65 % acetone/35 % water. Two-inch fiber pots each containing a nasturtium plant 2 inches high and infested with about 150 aphids 2 days earlier, are placed on a turntable (4 RPM) and sprayed for two revolutions with a No. 154 DeVilbiss Atomizer at 20 psi. air pressure. The spray tip is held about 6 inches from the plants, and the spray is directed so as to give complete coverage of the aphids and the plants. The sprayed plants are laid on their sides on white enamel trays. Mortality estimates are made after holding for 2 days at 70° F. and 50% R.H.

Assay [4] relates to Southern Armyworm (Prodenia eridania). Briefly: D. Southern Armyworm leaf-dip test. As to conditions: Spodoptera eridania, 48 h, 2 days, read-out: Percent Mortality, Southern Armyworm. How it is done: Compounds are tested at 1000 and 100 ppm. in solution or suspension in 65 % acetone/35 % water. Sieva lima bean primary leaves are dipped for 3 seconds in the test solution and set in a hood on a screen to dry. When dry, each leaf is placed in a 4 -inch petri dish which has a moist filter paper in the bottom and ten third-instar armyworm larvae about 3/8 inch long. The dishes are covered and held at 80° F., and 60 % R.H. After 2 days, mortality counts and estimates of the amount of feeding are made. Compounds showing partial kill and/or inhibition of feeding are held an extra day for further observations.

The subject of assay [5] is Two-spotted Spider Mite (Tetranychus urticae). Briefly: E. Two-spotted Spider Mite plant-dip test. Particulars: 48 h, read-out: Percent Mortality, Two-spotted Spider Mite; for mortality at 100 ppm: 2 days. How it is done:
Sieva lima bean plants with primary leaves 3 to 4 inches long are infested with about 100 adult mites per leaf 4 hours before use in this test. The mite and egg infested plants are dipped for 3 seconds in the same solutions used in the aphid test, and the plants set in the hood to dry. They are held for 2 days at 80° F., 60% R.H., and the adult mite mortality estimated on one leaf under a steroscopic microscope. The other leaf is left on the plant an additional 5 days and then examined at 10 X power to estimate the kill of eggs and of newly hatched nymphs, giving a measure of ovicidal and residual action, respectively.

For assay [6], the system named is Mexican Bean Beetle (Epilachna varivestis). Briefly: F. Mexican Bean Beetle leaf-dip test. Particulars: 48 h, 2 days, read-out: Percent Mortality, Mexican Bean Beetle. How it is done:
Compounds to be tested are made up as 100 or 10 ppm. solutions in 65 % acetone/35 % water. Sieva lima bean leaves are dipped in the test solution and set in the hood to dry. When dry, they are placed in 4 -inch petri dishes which have a moist filter paper in the bottom, and 10 third-instar bean beetles are added to each dish. The dishes are covered and held at 80° F., 60 % R.H. After 2 days, mortality counts and estimates of the amount of feeding are made. Compounds showing kills greater than 75 % are further tested at tenfold dilutions in 65 % acetone/35 % water.

Assay [7] has as its system Western Potato Leafhopper (Empoasca abrupta). Briefly: G. Western Potato Leafhopper plant-dip test. Particulars: 48 h, 2 days, read-out: Percent Mortality, Western Potato Leafhopper. As for the experimental part:
Sieva lima bean plants with the primary leaf expanded to 3 to 4 inches are dipped into 100 or 10 ppm. 50 % acetone/50 % water solutions and set in the hood to dry. A 1 -inch piece of the tip of a treated leaf is cut off and placed in a 4 -inch petri dish with a moist filter paper in the bottom. From 3 to 10 second-instar nymphs are tapped from the culture plants into the test dish and rapidly covered. Mortality counts are made after 2 days at 80° F., and 50 % R.H.

In assay [8] the test system is Malaria Mosquito (Anopheles quadrimaculatus). Briefly: H. Malaria Mosquito Adult Test. Particulars: 24 h, adults, 1 day, read-out: Percent Mortality, Malaria Mosquito. As for the experimental part:
Solutions of 65% acetone/35% water containing 10 ppm. of test compound are poured into wide-mouth 2-ounce jars, each containing a microscope slide. The slides are removed from the test solution with forceps and laid horizontally to dry on a wide-mouth 4-ounce bottle. When dry, they are placed in the same 4-ounce bottle and 10 4- to 5-day-old mosquitoes of mixed sexes are added to each bottle. A piece of cotton gauze held on by an elastic band serves as a lid, and wad of cotton soaked in 10% honey solution serves as food. Mortality counts are made after 1 day at 80° F., 50% R.H. (relative humidity) Data obtained with the above procedures are reported in Table II below.

For `CCOP(=S)(OCC)SCSC(C)(C)c1cc(Cl)ccc1Cl` [Example 10, S-(2,5-Dichloro-α,α-dimethylbenzylthio)-methyl O,O-Diethyl Phosphorodithioate], in assay [1], the mortality at 1120.85 g/ha came to 0%, the mortality at 11208.5 g/ha was determined as 100% and the mortality at 56042.5 g/ha amounted to 100%.
In the case of `CCOP(=S)(OCC)SCSC(C)(C)c1cccc(C)c1` [Example 14, S-(m,α,α-Trimethylbenzylthio)methyl O,O-Diethyl Phosphorodithioate], in [1], the mortality at 1120.85 g/ha is 100%, the mortality at 11208.5 g/ha was found to be 100% and the mortality at 56042.5 g/ha is 100%.
With `CCOP(=S)(OCC)SCSC(C)(CC)c1ccccc1` (stereo not drawn) [Example 21, S-(α-Ethyl-α-methylbenzylthio)methyl O,O-Diethyl Phosphorodithioate], in [1], the mortality at 1120.85 g/ha is 0%, the mortality at 11208.5 g/ha is 100% and the mortality at 56042.5 g/ha came out at 100%.
For `CCOP(=S)(OCC)SCSC(CC)(CC)c1ccccc1` [Example 22, S-(α,α-Diethylbenzylthio)methyl O,O-Diethyl Phosphorodithioate], in [1], the mortality at 1120.85 g/ha turned out to be 50%, the mortality at 11208.5 g/ha was determined as 100% and the mortality at 56042.5 g/ha came to 100%.
In the case of `COP(=S)(OC)SCSC(C)(C)c1ccc(C#N)cc1` [Example 24, S-(p-Cyano-α,α-dimethylbenzylthio)methyl O,O-Dimethyl Phosphorodithioate], in assay [1], the mortality at 1120.85 g/ha was found to be 0%, the mortality at 11208.5 g/ha worked out at 100% and the mortality at 56042.5 g/ha stood at 100%.
As to `CCOP(=S)(OCC)SCSC(C)(C)c1ccccc1` [drawing 6], the mortality at 100 ppm in [2] is 94%; in assay [3] it was 95%; in the assay with Bean Aphid (Aphis fabae), 100%; in assay [4], 100%; in assay [5], 75%; in [6] it was 100%. The mortality at 100 ppm in assay [7] was determined as 100%. Further, in the assay with Bean Aphid (Aphis fabae), the mortality at 1 ppm stood at 85%. Besides, the mortality at 10 ppm in the assay on Bean Aphid (Aphis fabae) was determined as 100%; in [6], 40%; in assay [7], 100%; in assay [8], 100%. Moreover, the mortality at 1000 ppm in assay [4] was 100%.
With `CCOP(=S)(OCC)SCSC(C)c1ccccc1` (centres unmarked) [drawing 7], the mortality at 100 ppm in [2] worked out at 70%; in assay [3], 0%; in the assay on Bean Aphid (Aphis fabae), 100%; in [4] it was 30%; in assay [5], 0%; in assay [6] it was 100%. Besides, the mortality at 100 ppm in assay [7] was 100%. Moreover, the mortality at 1 ppm in the assay with Bean Aphid (Aphis fabae) was 100%. For the same molecule, the mortality at 10 ppm in the assay on Bean Aphid (Aphis fabae) came to 100%; in assay [6], 0%; in assay [7], 100%; in assay [8] it was 100%. Moreover, the mortality at 1000 ppm in assay [4] worked out at 100%. In addition, in assay [5], the mortality at 300 ppm amounted to 100%.
As for `CCOP(=S)(OCC)SC[S+]([O-])C(C)(C)c1ccccc1` (centres unmarked) [drawing 8], the mortality at 100 ppm came to 0% in assay [2]; 100% in [3]; 100% with Bean Aphid (Aphis fabae); 80% in [4]; 100% in assay [5]; 100% in assay [6]. Also, in [7], the mortality at 100 ppm worked out at 100%. In addition, the mortality at 1 ppm in the assay with Bean Aphid (Aphis fabae) was determined as 100%. Further, the values for the mortality at 10 ppm (in the assay with Bean Aphid (Aphis fabae); in assay [6]; in assay [7]) were 100%, 40% and 100%, respectively. Further, the mortality at 1000 ppm in assay [4] stood at 100%. In addition, the mortality at 300 ppm in assay [5] came out at 100%.
In the case of `COP(=S)(OC)SCSC(C)(C)c1cc(Cl)ccc1Cl` [drawing 10], the mortality at 100 ppm in assay [2] amounted to 60%; in [3], 90%; in the assay on Bean Aphid (Aphis fabae) it was 100%; in [4], 100%; in assay [5], 100%; in [7], 100%. Further, the mortality at 1 ppm with Bean Aphid (Aphis fabae) is 50%. Besides, the figures for the mortality at 10 ppm (with Bean Aphid (Aphis fabae); in [7]; in [8]) were 100%, 40% and 70%, respectively. The mortality at 1000 ppm in assay [4] was determined as 100%. Further, in assay [5], the mortality at 300 ppm is 100%.
As for `COP(=S)(OC)SCSC(C)(C)c1ccccc1` [drawing 13], the mortality at 100 ppm was 90% in [2]; 100% in [3]; 100% with Bean Aphid (Aphis fabae); 100% in assay [4]; 100% in assay [5]; 80% in [6]. In addition, the mortality at 100 ppm in [7] was determined as 100%. Further, the mortality at 1 ppm with Bean Aphid (Aphis fabae) was 80%. The mortality at 10 ppm in the assay with Bean Aphid (Aphis fabae) came to 100%; in [6] it was 80%; in [7], 100%. In addition, the mortality at 1000 ppm in assay [4] stood at 100%. Also, the mortality at 300 ppm in [5] was determined as 100%.
`CCOP(=S)(OCC)SCSC(C)(C)c1cccc(C)c1` [drawing 17]: the mortality at 100 ppm was 0% in [2], 100% in the assay on Bean Aphid (Aphis fabae), 20% in assay [4] and 0% in assay [7]. Also, in the assay on Bean Aphid (Aphis fabae), the mortality at 1 ppm worked out at 0%. Further, the mortality at 10 ppm turned out to be 100% with Bean Aphid (Aphis fabae) and 0% in assay [8]. Further, the mortality at 1000 ppm in assay [4] came out at 100%. Besides, in [5], the mortality at 300 ppm came to 0%.
